Experimental data taken from patent US8834843B2, “Imaging method” (GE Healthcare Limited, priority 2007, dated 2014).
Numbered stars: 1 amine (or outer) side, 2 acyl side, 3 side chain; on linkers, the order of the positions; unused ones are H or OH. Bridge positions count the residues as written; N and C are the ends. Side chains are listed from the residue outwards. Peptide text beside a SMILES is read from it. * marks the point of attachment. X1 = C/C(=N\O)C(C)(C)NCCC(CCNC(C)(C)/C(C)=N/O)CCN*; Glutaryl = O=C(CCCC(=O)[*:2])[*:1]; X2 = NC(=O)COCC(=O)NCCOCCOCCOCCN*

Assays:
[1] = tested on: fibrogenic livers in rat BDL model; experiment: Liver uptake (SUV) in BDL vs sham rats at 2-28 days post-operatively; type: in vivo; conditions: 1 hour after tail vein injection
Description: Outbred male Sprague Dawley rats (180-200 g; Charles River) were used in all bile duct ligation (BDL) and sham studies. […] For the BDL animals, the abdomen was shaved and swabbed with betadine solution followed by 5 mg/kg carprofen subcutaneously (s.c.) and 5 mg/kg bupronorphine s.c. and under Isoflurane anaesthesia a mid-line laparotomy was performed and the common bile duct located. Bile duct was double ligated, the first ligation made between the junction of the hepatic ducts and the second above the entrance of the pancreatic ducts. […] Animals were closely monitored for the duration of the experiment. […] At the appropriate time point post-injection of the test item, each animal was re-anaesthetised with isoflurane, sacrificed by cervical dislocation weighed and the weight recorded via a barcode scanning system. Each animal was dissected and the following organs and tissues were removed and counted using BASIL counter protocol 40 or manual counting: The BDL and sham animal models were set up as described in Example 3. Uptake of Compound 8 was calculated as Standard Uptake Value (SUV) as follows: [formula] • Zs=counts per second in sample • Ws=weight of sample in grams • Z1=total counts per second measured in all the samples (excluding the injection site) • W1=weight of animal in grams […]

αv integrin = experiment: Liver uptake vs alpha-v integrin expression (ELISA) in BDL rat liver; type: in vivo; conditions: BDL animals
Description: The BDL and sham animal models were set up as described in Example 3. At each of 2, 15 and 28 days post-operatively, ˜3 MBq Compound 8 was administered to animals and the liver uptake assessed as described in Example 3.
The expression of αv integrin in the animals' livers was measured in homogenised livers of BDL- and sham-operated animals. At each of 2, 15 and 28 days post-operatively, animals were sacrificed and their livers removed and stored at −70° C.
Pre-weighed livers were removed from −70° C. freezer and placed into pre-cooled mortar and pestle in the presence of low amount of liquid nitrogen. Liver was crushed to almost a homogenous powder (during the crushing of the liver a small amount of liquid nitrogen was added to keep the tissue frozen at all times). […]
The homogenate was transferred into a pre-chilled glass tissue Dounce and three up and down strokes of the pestle were applied at 4° C. […] Relative protein concentration was determined in each sample using a commercial protein assay kit with BSA standards according to the manufacturer's instruction (Pierce, USA) (BSA aliquots should be made in modified RIPA buffer that was used for the homogenisation). Supernatant from each sample was further diluted between 1:50 and 1:200 in H2O and protein concentration was determined using a […] multi-well Plate reader (iEMS). […]

In the case of `C/C(=N\O)C(C)(C)NCCC(CCNC(=O)CCCC(=O)NCCCC[C@@H]1NC(=O)CSC[C@@H](C(=O)NCCOCCOCCOCCNC(=O)COCC(N)=O)NC(=O)[C@H](Cc2ccccc2)NC(=O)[C@@H]2CSSC[C@H](NC1=O)C(=O)N[C@@H](CCCNC(=N)N)C(=O)NCC(=O)N[C@@H](CC(=O)O)C(=O)N2)CCNC(C)(C)/C(C)=N/O` (some centres unmarked) [Compound 8] ({CH2CO}-K([Glutaryl-X1])CRGDCFC-X2; disulfide 2-6; thioether N-8), the “Liver uptake in BDL rats (in words)” value [1] is reported as “specific uptake” and the “Correlation of αv integrin expression with liver uptake (in words)” value (αv integrin) is reported as “correlation”.
